Assay results from patent US6689773B2, “Uracil substituted phenyl sulfamoyl carboxamides” (BASF Aktiengesellschaft, priority 2000, dated 2004).

Columns and labels:
Format in all cases: in vivo
[1] = test system: SETVI, Green foxtail, Setaria viridis, (L.)Beau; test: Postemergence herbicidal evaluation (Example 147); details: rating scale 0-9, two to three weeks after treatment
Protocol: (§1) Seedling plants were grown in jiffy flats for about two weeks. The test compounds were dispersed in 80/20 acetone/water mixtures containing 1.0% SUN-IT®II, a methylated seed oil, in sufficient quantities to provide the equivalent of about 0.016 to 0.032 kg per hectare of active compound when applied to the plants through a spray nozzle operating at 40 psi for a predetermined time. After spraying, the plants were placed on greenhouse benches and were cared for in accordance with conventional greenhouse procedures. Approximately two to three weeks after treatment, the seedling plants were examined and rated according to the rating scale (0-9) set forth below. Where more than one test is involved for a given compound, the data are averaged. [table] The scale is based upon a visual observation of plant stand, vigor, malformation, size, chlorosis and overall plant appearance as compared with a control. Plant species employed in these evaluations are reported by header abbreviation, common name and scientific name. [table]

[2] = test system: ECHCG, Barnyardgrass, Echinochloa crusgalli, (L.)Beau; test: Postemergence herbicidal evaluation (Example 147); details: rating scale 0-9, two to three weeks after treatment
Protocol: as §1

[3] = test system: ALOMY, Blackgrass, Alopecurus myosuroides; test: Postemergence herbicidal evaluation (Example 147); details: rating scale 0-9, two to three weeks after treatment
Protocol: as §1

[4] = test system: GLXMA, Soybean, Glycine max, (L.) Merr.; test: Postemergence herbicidal evaluation (Example 147); details: rating scale 0-9, two to three weeks after treatment
Protocol: as §1

[5] = test system: ABUTH, Velvetleaf, Abutilon theophrasti, Medic.; test: Postemergence herbicidal evaluation (Example 147); details: rating scale 0-9, two to three weeks after treatment
Protocol: as §1

[6] = test system: XANST, Cocklebur, Xanthium strumariam; test: Postemergence herbicidal evaluation (Example 147); details: rating scale 0-9, two to three weeks after treatment
Protocol: as §1

[7] = test system: AMBEL, Ragweed, Common, Ambrosia artemiisifolia, L.; test: Postemergence herbicidal evaluation (Example 147); details: rating scale 0-9, two to three weeks after treatment
Protocol: as §1

[8] = test system: TRZAW, Winter wheat, Tritium Aestivum, L. (Winter); test: Postemergence herbicidal evaluation (Example 147); details: rating scale 0-9, two to three weeks after treatment
Protocol: as §1

[9] = test system: CHEAL, Lambsquarters, Chenopodium album, L. Common; test: Postemergence herbicidal evaluation (Example 147); details: rating scale 0-9, two to three weeks after treatment
Protocol: as §1

[10] = test system: IPOHE, Morningglory, Ivyleaf, Ipomoea hederacea, (L)Jacq.; test: Postemergence herbicidal evaluation (Example 147); details: rating scale 0-9, two to three weeks after treatment
Protocol: as §1

[11] = test system: ZEAMX, Field corn, Zea mays L.; test: Postemergence herbicidal evaluation (Example 147); details: rating scale 0-9, two to three weeks after treatment
Protocol: as §1

[12] = test system: DIGSA, Crabgrass, (Hairy) L, Digitaria sanguinalis, (L)Scop; test: Postemergence herbicidal evaluation (Example 147); details: rating scale 0-9, two to three weeks after treatment
Protocol: as §1

[13] = test system: SETVI, Green foxtail, Setaria viridis, (L.)Beau; test: Preemergence herbicidal evaluation (Example 148); details: rating scale 0-9, two to four weeks after treatment
Protocol: (§2) The scale is based upon a visual observation of plant stand, vigor, malformation, size, chlorosis and overall plant appearance as compared with a control.
(§3) The herbicidal activity of the compounds of the present invention was evaluated by the following tests wherein the seeds of a variety of monocotyledonous and dicotyledonous plants were separately mixed with potting soil and planted on top of approximately one inch of soil in separate pint cups. After planting, the cups were sprayed with the selected aqueous acetone solution containing test compound in sufficient quantity to provide the equivalent of about 0.125 to 0.250 kg per hectare of test compound per cup. The treated cups were then placed on greenhouse benches, watered and cared for in accordance with conventional greenhouse procedures. From two to four weeks after treatment, the tests were terminated and each cup was examined and rated according to the rating system provided in Example 94. When more than one test was performed for a given compound, the data were averaged.

[14] = test system: ECHCG, Barnyardgrass, Echinochloa crusgalli, (L.)Beau; test: Preemergence herbicidal evaluation (Example 148); details: rating scale 0-9, two to four weeks after treatment
Protocol: as §2, §3

[15] = test system: ALOMY, Blackgrass, Alopecurus myosuroides; test: Preemergence herbicidal evaluation (Example 148); details: rating scale 0-9, two to four weeks after treatment
Protocol: as §2, §3

[16] = test system: GLXMA, Soybean, Glycine max, (L.) Merr.; test: Preemergence herbicidal evaluation (Example 148); details: rate 0.125 kg/ha, rating scale 0-9, two to four weeks after treatment
Protocol: as §2, §3

[17] = test system: ABUTH, Velvetleaf, Abutilon theophrasti, Medic.; test: Preemergence herbicidal evaluation (Example 148); details: rating scale 0-9, two to four weeks after treatment
Protocol: as §2, §3

[18] = test system: AMBEL, Ragweed, Common, Ambrosia artemiisifolia, L.; test: Preemergence herbicidal evaluation (Example 148); details: rating scale 0-9, two to four weeks after treatment
Protocol: as §2, §3

[19] = test system: TRZAW, Winter wheat, Tritium Aestivum, L. (Winter); test: Preemergence herbicidal evaluation (Example 148); details: rating scale 0-9, two to four weeks after treatment
Protocol: as §2, §3

[20] = test system: CHEAL, Lambsquarters, Chenopodium album, L. Common; test: Preemergence herbicidal evaluation (Example 148); details: rating scale 0-9, two to four weeks after treatment
Protocol: as §2, §3

[21] = test system: IPOHE, Morningglory, Ivyleaf, Ipomoea hederacea, (L)Jacq.; test: Preemergence herbicidal evaluation (Example 148); details: rating scale 0-9, two to four weeks after treatment
Protocol: as §2, §3

[22] = test system: ZEAMX, Field corn, Zea mays L.; test: Preemergence herbicidal evaluation (Example 148); details: rating scale 0-9, two to four weeks after treatment
Protocol: as §2, §3

[23] = test system: DIGSA, Crabgrass, (Hairy) L, Digitaria sanguinalis, (L)Scop; test: Preemergence herbicidal evaluation (Example 148); details: rating scale 0-9, two to four weeks after treatment
Protocol: as §2, §3

CCN(C)S(=O)(=O)NC(=O)c1cc(-n2c(=O)cc(C(F)(F)F)n(C)c2=O)c(F)cc1Cl [Example 66]
1.0: Postemergence herbicidal rating ALMOY ([3]; rate 0.016 kg/ha) | Preemergence herbicidal rating TRZAW ([19]; rate 0.125 kg/ha) | Preemergence herbicidal rating TRZAW ([19]; rate 0.25 kg/ha) | Preemergence herbicidal rating ZEAMX ([22]; rate 0.125 kg/ha)
0.0: Preemergence herbicidal rating ALMOY ([15]; rate 0.125 kg/ha) | Preemergence herbicidal rating GLXMA [16]
6.5: Postemergence herbicidal rating TRZAW ([8]; rate 0.032 kg/ha)
9.0: Postemergence herbicidal rating SETVI ([1]; rate 0.032 kg/ha) | Postemergence herbicidal rating GLXMA ([4]; rate 0.032 kg/ha) | Postemergence herbicidal rating ABUTH ([5]; rate 0.016 kg/ha) | Postemergence herbicidal rating ABUTH ([5]; rate 0.032 kg/ha) | Postemergence herbicidal rating XANST ([6]; rate 0.016 kg/ha) | Postemergence herbicidal rating XANST ([6]; rate 0.032 kg/ha) | Postemergence herbicidal rating AMBEL ([7]; rate 0.016 kg/ha) | Postemergence herbicidal rating AMBEL ([7]; rate 0.032 kg/ha) | Postemergence herbicidal rating CHEAL ([9]; rate 0.032 kg/ha) | Postemergence herbicidal rating IPOHE ([10]; rate 0.016 kg/ha) | Postemergence herbicidal rating IPOHE ([10]; rate 0.032 kg/ha) | Preemergence herbicidal rating ABUTH ([17]; rate 0.125 kg/ha) | Preemergence herbicidal rating ABUTH ([17]; rate 0.25 kg/ha) | Preemergence herbicidal rating AMBEL ([18]; rate 0.125 kg/ha) | Preemergence herbicidal rating AMBEL ([18]; rate 0.25 kg/ha) | Preemergence herbicidal rating CHEAL ([20]; rate 0.125 kg/ha) | Preemergence herbicidal rating CHEAL ([20]; rate 0.25 kg/ha) | Preemergence herbicidal rating IPOHE ([21]; rate 0.125 kg/ha) | Preemergence herbicidal rating IPOHE ([21]; rate 0.25 kg/ha)
5.0: Postemergence herbicidal rating TRZAW ([8]; rate 0.016 kg/ha) | Postemergence herbicidal rating DIGSA ([12]; rate 0.016 kg/ha)
7.5: Postemergence herbicidal rating ZEAMX ([11]; rate 0.032 kg/ha)
7.0: Postemergence herbicidal rating ZEAMX ([11]; rate 0.016 kg/ha)
6.0: Postemergence herbicidal rating DIGSA ([12]; rate 0.032 kg/ha) | Preemergence herbicidal rating SETVI ([13]; rate 0.25 kg/ha)
2.0: Postemergence herbicidal rating ALMOY ([3]; rate 0.032 kg/ha) | Preemergence herbicidal rating ALMOY ([15]; rate 0.25 kg/ha) | Preemergence herbicidal rating ZEAMX ([22]; rate 0.25 kg/ha)
8.0: Postemergence herbicidal rating SETVI ([1]; rate 0.016 kg/ha) | Postemergence herbicidal rating ECHCG ([2]; rate 0.016 kg/ha) | Postemergence herbicidal rating ECHCG ([2]; rate 0.032 kg/ha) | Postemergence herbicidal rating GLXMA ([4]; rate 0.016 kg/ha) | Postemergence herbicidal rating CHEAL ([9]; rate 0.016 kg/ha) | Preemergence herbicidal rating ECHCG ([14]; rate 0.25 kg/ha) | Preemergence herbicidal rating DIGSA ([23]; rate 0.25 kg/ha)
4.0: Preemergence herbicidal rating SETVI ([13]; rate 0.125 kg/ha) | Preemergence herbicidal rating ECHCG ([14]; rate 0.125 kg/ha) | Preemergence herbicidal rating DIGSA ([23]; rate 0.125 kg/ha)
